In patent US20240392251A1, “CULTURE MEDIUM AND CULTURE METHOD FOR LUNG CANCER EPITHELIAL CELLS, AND APPLICATION THEREOF” (PRECEDO PHARMACEUTICALS CO., LTD, priority 2021, published 2024):
Ends that are not written are not given here.

Key:
Assay type in all cases: cell-based, human
[1] = test system: lung cancer cells (No. B18); test: Effects of different factors added to basic medium BM on proliferation of primary lung cancer cells; settings: factor added to BM at the concentrations of Table 3; 12 days of culture; FIGS. 1A-1D
Method: (§1) Extracellular matrix gel (Matrigel®) (manufactured by Corning) was diluted with serum-free DMEM/F12 medium at a ratio of 1:100 to prepare an extracellular matrix diluent. The extracellular matrix diluent was added to a 48-well culture plate with 500 μl/well to completely cover the bottom of the wells of the culture plate. The culture plate was let stand for 1 hour in a 37° C. incubator. After 1 hour, the extracellular matrix diluent was removed to provide a Matrigel-coated plate.
Preparation of basic medium (abbreviated as BM): BM was prepared by adding 0.2 vol. % of Primocin (purchased from Invivogen, with a concentration of 50 mg/ml) to the commercial DMEM/F-12 medium to provide a final concentration of 100 μg/ml.
Next, different kinds and concentrations of additive factors (Table 3) were added to the basic medium (BM), so as to prepare culture mediums for lung cancer epithelial cells containing different additive components.
The culture mediums with different components were added at a volume of 500 μl/well to 48-well plates which were coated with extracellular matrix gel (Matrigel). Lung cancer cells (No. B18) isolated from lung cancer tissues according to the same method as described in Example 1 were inoculated at a cell density of 2×10^4 cells/cm^2 in the above-mentioned 48-well culture plates which were coated with Matrigel. After surface disinfection, the plates were placed in a 37° C., 5% CO2 incubator (purchased from Thermo Fisher), and the same number of freshly isolated lung cancer tumor cells (No. B18) were cultured under different medium formulations. The culture mediums were replaced every 4 days after the start of culture. After 12 days of culture, cell counts were performed. The basic medium (BM) without addition of any additive factor was used as a control. The ordinate in the figures represents the ratio of the number of cells obtained after culture in different mediums to the number of cells obtained after culture in basic medium BM.

[2] = test system: lung cancer epithelial cells (Sample No. B26); test: Effects of different concentrations of the additive factors on proliferation of primary lung cancer cells; settings: added to No. 8 medium lacking the factor; cell number ratio to Blank Control; FIGS. 3A-3H
Method: as §1, with “(Matrigel®)” for “(Matrigel®) (manufactured by Corning)”, “200” for “500”
No. 8 culture medium for primary lung cancer epithelial cells was prepared.
Lung cancer epithelial cells derived from cancer tissues were isolated from the cancer tissue of a lung cancer patient (Sample No. B26) using the same method as in Example 1. Next, lung cancer epithelial cells derived from cancer tissues were counted with a flow imaging counter (JIMBIO FIL, Jiangsu Jimbio Technology Co., Ltd.) to get the total number of cells. Then, the cells were inoculated at a density of 4×10^4 cells/cm^2 in a 48-well plate which was coated with Matrigel®. […] of the prepared No. 8 culture medium for primary lung cancer epithelial cells was added to the 48-well plate, which was then placed in a 37° C., 5% CO2 incubator (purchased from Thermo Fisher) for culture. When the cells in the culture plate grew to cover about 80% of the bottom area, the supernatant of medium in the 48-well plate was discarded and 500 μl of 0.05% trypsin (purchased from Gibco) was added for cell digestion, which was then incubated at 37° C. for 10 minutes, until the cells were completely digested as observed under a microscope (EVOS M500, Invitrogen); then the digestion was terminated by using 1 ml of DMEM/F12 culture solution containing 5% (v/v) fetal bovine serum (purchased from ExCell Bio), 100 U/ml penicillin (purchased from Corning), and […] streptomycin (purchased from Corning); the resultant was collected into a 15 ml centrifuge tube and centrifuged at 1500 rpm for 4 minutes, and then the supernatant was discarded. The centrifuged cell pellet was resuspended in the basic medium BM and the cells were counted with a flow imaging counter (JIMBIO FIL, Jiangsu Jimbio Technology Co., Ltd.) to get the total number of cells. The obtained cells were used in the following cultivation experiments.
Next, the following 8 formulations of culture medium were prepared for experiments: • Formulation 1: No. 8 culture medium composition without B27 additive; • Formulation 2: No. 8 culture medium composition without fibroblast growth factor; • Formulation 3: No. 8 culture medium composition without transferrin; • Formulation 4: No. 8 culture medium composition without epidermal growth factor; • Formulation 5: No. 8 culture medium composition without Y27632; • Formulation 6: No. 8 culture medium composition without Compound 1; • Formulation 7: No. 8 culture medium composition without A83-01; • Formulation 8: No. 8 culture medium composition without gastrin.
The digested cell suspension was diluted with the above Formulations 1-8 respectively, and then inoculated into a 48-well plate at a volume of 250 μl with 10,000 cells per well.
When using the medium of Formulation 1, to a 48-well plate inoculated with primary cells was added the prepared B27 additive, with 250 μl per well, the final concentrations of B27 additive were 1:800, 1:400, 1:200, 1:100, 1:50, 1:25, respectively; a well of Blank Control (BC) was set using the medium of Formulation 1.
When using the medium of Formulation 2, to a 48-well plate inoculated with primary cells was added the prepared fibroblast growth factor, with 250 μl per well, the final concentrations of fibroblast growth factor were 80 ng/ml, 40 ng/ml, 20 ng/ml, 10 ng/ml, 5 ng/ml, 2.5 ng/ml, respectively; a well of Blank Control (BC) was set using the medium of Formulation 2. […]

[3] = test system: Hippo pathway related proteins YAP and TAZ in the nucleus; test: Immunoblotting of Hippo pathway related proteins YAP and TAZ in the nucleus; settings: B16 cells, FLM with Compound 1 versus FLM without Compound 1, 12 days; FIG. 10
Method: Freshly isolated primary lung cancer epithelial cell sample (No. B16) was obtained according to the steps described in Example 1. Then, the primary epithelial cells were inoculated onto a 6-well plate coated with Matrigel™. 3 mL of the culture medium FLM and 3 mL of the culture medium FLM without Compound 1 were respectively added to the wells inoculated with the aforementioned epithelial cells. The plate was placed in a 37° C., 5% CO2 incubator (purchased from Thermo Fisher) for culture. The culture mediums were changed every 4 days during the culture process. After 12 days of cultivation, cells of each group were collected and the […] of Compound 1 on Hippo pathway related proteins YAP and TAZ in the nucleus was detected using conventional immunoblotting method. Yes associated protein (YAP) and its homologous transcriptional co-activator PDZ-binding motif (TAZ) are key effectors in the Hippo pathway that control cell growth and organ size, and their dysregulation may lead to tumor development or hypertrophy. After activation, YAP/TAZ translocate to the nucleus and bind to TEAD transcription factors, promoting cell proliferation or regulated transcription process.

| Molecule | effect on cell proliferation (ratio of number of cells to that in basic medium BM) [1] | amount in the culture medium, most preferably [2] | expression of YAP and TAZ proteins in the nucleus [3] |
| --- | --- | --- | --- |
| transferrin: additive factor from Sino Biological Inc. | certain promoting effects on cell proliferation in specific concentration ranges | 20 ng/mL | – |
| Cc1cccc(-c2nn(C(=S)Nc3ccccc3)cc2-c2ccnc3ccccc23)n1 [Compound A83-01, reference compound] | certain promoting effects on cell proliferation in specific concentration ranges | 0.5 µM | – |
| C[C@@H](N)[C@H]1CC[C@H](C(=O)Nc2ccncc2)CC1 [Compound Y27632, reference compound] | certain promoting effects on cell proliferation in specific concentration ranges | 10 µM | – |
| fibroblast growth factor | certain promoting effects on cell proliferation in specific concentration ranges | 10 ng/mL | – |
| CN1C(=O)C(c2c(F)cccc2F)N(C)c2nc(Nc3ccc(S(N)(=O)=O)cc3)ncc21 (stereo not shown) [Compound 1, 4-((7-(2,6-Difluorophenyl)-5,8-dimethyl-6-oxo-5,6,7,8-tetrahydropteridin-2-yl)amino)benzsulfamide] | certain promoting effects on cell proliferation in specific concentration ranges | 5 µM | significant increase |
| gastrin: additive factor from Sino Biological Inc. (QGPWLEEEEEAYGWMDF; ends and bridges not checked; UniProt P01350 76-92, looked up) | certain promoting effects on cell proliferation in specific concentration ranges | 10 ng/mL | – |
